In publication PMC9146695, “Globularia alypum L. and Related Species: LC-MS Profiles and Antidiabetic, Antioxidant, Anti-Inflammatory, Antibacterial and Anticancer Potential” (Pharmaceuticals, 2022):
≈ marks a conversion by molar mass, not a printed value.

How the values were obtained:
Assay type in all cases: cell-based
[1] = test system: Bacillus subtilis ATCC 6633; test: Serial broth microdilution with agar sub-cultivation
[2] = test system: Enterococcus faecalis ATCC 29212; test: Well diffusion method; conditions: aerial parts extracts c = 50 mg/mL; antibiotics c = 0.2 mg/mL; n.d. = growth inhibition not detected
Method: (§1) Antibacterial activity was evaluated using the following strains: Bacillus cereus American Type Culture Collection (ATCC, Manassas, VA, USA) 11778, B. subtilis ATCC 6633, Enterococcus faecalis ATCC 29212, Staphylococcus aureus ATCC 6538 and S. aureus ATCC 29213 among Gram-positive and Escherichia coli ATCC 10536, Klebsiella pneumoniae MFBF 10402 and Pseudomonas aeruginosa ATCC 27853 among Gram-negative bacterial species. Additionally, eight clinical isolates of S. aureus, including methicillin-resistant S. aureus (MRSA MFB F101, MRSA MFBF 124, MRSA MFBF 154, MRSA MFBF 164, and MRSA MFBF 177) and methicillin susceptible S. aureus (S. aureus MFBF 505, S. aureus MFBF 10661 and S. aureus MFBF 10666) were used. Bacterial strains were sourced from the Collection of Microorganisms, Department of Microbiology, Faculty of Pharmacy and Biochemistry, University of Zagreb. Inoculums were prepared from overnight cultures that were cultured on tryptic soy agar (TSA) at 37 °C, suspended in sterile physiological saline, with the optic density adjusted to 0.5 McFarland (1.5 × 10^8 colony-forming units (CFUs)/mL) using a densitometer (Densimat, BioMérieux, Marcy-l’Étoile, France). Right before cultivation in nutrient medium, 1 mL of each prepared suspension was dissolved with 9 mL physiological saline. Prior to cell treatment, sample stock solutions in distilled water (c = 50 mg/mL) were filtered through Chromafil cellulose acetate filters of pore size 0.22 μm (Macherey-Nagel, Düren, Germany).
(§2) Well diffusion method was carried out according to the European Pharmacopoeia. Inoculums (100 μL) were transferred to individual petri dishes with 4 mm thick Müller–Hinton agar and equally distributed across agar surface with a glass L-stick. Wells were prepared using sterile stainless-steel cylinders (d = 6 mm) and filled with 50 μL of methanolic aerial parts extract solution (c = 50 mg/mL) in distilled water. Plates were incubated at 37 °C for 18 h in the dark. Diameters of the zones of inhibition of bacterial growth (mm) were read from the diameters of transparent zones around the wells. Gentamicin and norfloxacin (c = 0.2 mg/mL) were used as positive controls.

[3] = test system: Bacillus subtilis ATCC 6633; test: Well diffusion method; conditions: aerial parts extracts c = 50 mg/mL; antibiotics c = 0.2 mg/mL; n.d. = growth inhibition not detected
Method: as §1, §2

[4] = test system: Escherichia coli ATCC 10536; test: Well diffusion method; conditions: aerial parts extracts c = 50 mg/mL; antibiotics c = 0.2 mg/mL; n.d. = growth inhibition not detected
Method: as §1, §2

[5] = test system: Klebsiella pneumoniae MFBF 10402; test: Well diffusion method; conditions: aerial parts extracts c = 50 mg/mL; antibiotics c = 0.2 mg/mL; n.d. = growth inhibition not detected
Method: as §1, §2

[6] = test system: Pseudomonas aeruginosa ATCC 27853; test: Well diffusion method; conditions: aerial parts extracts c = 50 mg/mL; antibiotics c = 0.2 mg/mL; n.d. = growth inhibition not detected
Method: as §1, §2

[7] = test system: Bacillus cereus ATCC 11778; test: Well diffusion method; conditions: aerial parts extracts c = 50 mg/mL; antibiotics c = 0.2 mg/mL; n.d. = growth inhibition not detected
Method: as §1, §2

[8] = test system: Staphylococcus aureus ATCC 6538; test: Well diffusion method; conditions: aerial parts extracts c = 50 mg/mL; antibiotics c = 0.2 mg/mL
Method: as §1, §2

[9] = test system: Klebsiella pneumoniae MFBF 10402; test: Serial broth microdilution with agar sub-cultivation
[10] = test system: Bacillus cereus ATCC 11778; test: as above
[11] = test system: Escherichia coli ATCC 10536; test: as above
[12] = test system: Staphylococcus aureus ATCC 6538; test: as above
[13] = test system: Pseudomonas aeruginosa ATCC 27853; test: as above
[14] = test system: Staphylococcus aureus ATCC 29213; test: as above
[15] = test system: Enterococcus faecalis ATCC 29212; test: as above; conditions: ATCC29212, n.d. = not detected (0.18–11.36 mg/mL)

For `CNC(C)C1CCC(N)C(OC2C(N)CC(N)C(OC3OCC(C)(O)C(NC)C3O)C2O)O1` (stereo not shown) [Gentamicin, gentamicin], the MIC ([1]; ATCC6633, aerial parts extracts, TTC detection, n.d. = growth inhibition not detected (0.18–11.36 mg/mL)) was < 0.1 µg/mL, the MBC ([1]; ATCC6633, agar sub-cultivation, n.d. = not detected (0.18–11.36 mg/mL)) was 0.2 µg/mL (≈ 0.419 µM) and the growth inhibition zone [2] was 15.0 ± 0.0 mm. For the same compound, the growth inhibition zone [3] was 24.7 ± 0.6 mm, the growth inhibition zone [4] was 23.3 ± 0.6 mm and the growth inhibition zone [5] was 21.0 ± 0.0 mm. It also gave a growth inhibition zone [6] of 24.3 ± 0.6 mm, a growth inhibition zone [7] of 22.3 ± 0.6 mm and a growth inhibition zone [8] of 24.0 ± 0.0 mm. For the same compound, the MIC ([9]; MFBF10402, aerial parts extracts, TTC detection, n.d. = growth inhibition not detected (0.18–11.36 mg/mL)) was 0.3 µg/mL (≈ 0.628 µM), the MBC ([9]; MFBF10402, agar sub-cultivation, n.d. = not detected (0.18–11.36 mg/mL)) was 0.8 µg/mL (≈ 1.68 µM) and the MIC ([10]; ATCC11778, aerial parts extracts, TTC detection, n.d. = growth inhibition not detected (0.18–11.36 mg/mL)) was 1.5 µg/mL (≈ 3.14 µM). The MBC ([10]; ATCC11778, agar sub-cultivation, n.d. = not detected (0.18–11.36 mg/mL)) was 1.5 µg/mL (≈ 3.14 µM), the MIC ([11]; ATCC10536, aerial parts extracts, TTC detection, n.d. = growth inhibition not detected (0.18–11.36 mg/mL)) was 0.1 µg/mL (≈ 0.209 µM) and the MBC ([11]; ATCC10536, agar sub-cultivation, n.d. = not detected (0.18–11.36 mg/mL)) was 1.5 µg/mL (≈ 3.14 µM). It also gave an MIC ([12]; ATCC6538, aerial parts extracts, TTC detection) of 0.6 µg/mL (≈ 1.26 µM), an MBC ([12]; ATCC6538, agar sub-cultivation, n.d. = not detected) of 0.8 µg/mL (≈ 1.68 µM) and an MIC ([13]; ATCC27853, aerial parts extracts, TTC detection, n.d. = growth inhibition not detected (0.36–22.73 mg/mL)) of 1.1 µg/mL (≈ 2.3 µM). For the same compound, the MBC ([13]; ATCC27853, agar sub-cultivation, n.d. = not detected (0.36–22.73 mg/mL)) was 3 µg/mL (≈ 6.28 µM), the MIC ([14]; ATCC29213, aerial parts extracts, TTC detection) was 0.3 µg/mL (≈ 0.628 µM) and the MBC ([14]; ATCC29213, agar sub-cultivation) was 0.7 µg/mL (≈ 1.47 µM). The MBC [15] was 4.6 µg/mL (≈ 9.63 µM).
